The values below come from patent US11192889B2, “Tetrahydronaphthyridinepentanamide integrin antagonists” (The Rockefeller University, priority 2016, dated 2021).

Experiment [1] deals with T1, HEK-293-αVβ3 cells (Homo sapiens, UniProt P05106+P06756). Nature of the experiment: αVβ3 Cell Adhesion to Fibrinogen Assay. In kind it is cell-based. The arrangement: IC50; other: dose reducing by 50% the adhesion of HEK-293-αVβ3 cells to fibrinogen; untreated cells 100% adhesion, 10 mM EDTA 0%. The settings on record: for IC50: dose reducing by 50% the adhesion of HEK-293-αVβ3 cells to fibrinogen, separate determinations listed. The text has this:
(§1) HEK-293 Cells Expressing αVβ3. HEK-293 cells were transfected using lipofectamine 2000 (Invitrogen #11668030) with the cDNA for αV using the pEF1/V5-His A vector and the cDNA for β3 using the vector pcDNA3.1. Cells expressing αVβ3 were identified by their reaction with murine monoclonal antibodies (mAbs) LM609 and 7E3, and stable cell lines were established by repetitive sorting using LM609. […] HEK-293-αVβ3 cells for assays are counted in an automated cell counter (ADVIA 120) and adjusted to values appropriate for each assay.
αVβ3 Cell Adhesion to Fibrinogen Assay. Polystyrene 96-well microtiter plates (Costar, 3590) are precoated with 3.5 μg/mL of purified fibrinogen (Enzyme Research Laboratories) in 0.15 M NaCl, 0.01 M Tris/HCL, pH 7.4 for 1 hour at 37° C. The wells are then washed and incubated with HEPES-Buffered Modified Tyrode's solution (HBMT; 0.128 M NaCl, 10 mM HEPES, 12 mM NaHCO3, 0.4 mM NaH2PO4, 2.7 mM KCl, 0.35% bovine serum albumin (Fisher), 0.1% glucose, pH 7.4) for 1 hour at room temperature or overnight at 4° C. Wells are washed with HBMT containing 1 mM Mg2+ and 2 mM Ca2+ and then 50 μL of HEK-293-αVβ3 cells that have been pretreated with the compound to be tested for 20 minutes at room temperature are added to each well at a concentration of 3,000 cells/μL. After 30-32 minutes the wells are washed with HBMT containing Ca2+ and Mg2+ three times and then the adherent cells are lysed and the acid phosphatase activity that is released is measured by: 1. adding phosphatase substrate (Sigma EC 224-246-5) at 2 mg/mL in 0.1 M Na citrate, pH 5.6, 0.1% triton X-100 for 1 hour at room temperature; 2. stopping the reaction by adding 50 μL of 2 M NaOH; and 3. analyzing the samples in a spectrophotometer at 405 nm. In each assay, 10 mM EDTA is used as a positive control and untreated cells are used as a negative control. The IC50 is the dose of test compound that reduces by 50% the adhesion of the HEK-293-αVβ3 cells, taking the results with untreated cells as 100% and the results in the presence of EDTA as 0%. In some instances more than one IC50 determination was made, in which case, results of separate determinations are reported. IC50's were not determined for all compounds in the table; for some of these test compounds the inhibition at specific doses are reported. In some instances, the test compound produced a greater reduction than 10 mM EDTA, and these are shown as negative numbers.

The target in experiment [2] is T1, HEK-293-αVβ3 cells. The experiment can be described thus: AP5 Binding Assay. The format is cell-based. The settings on record: for EC50: concentration inducing 50% of the AP5 expression induced by 1 μM cilengitide; for activation at 10 µM: read-out: AP5 expression induced at the highest concentration.
Excerpt: as §1
AP5 Binding Assay. HEK-293-αVβ3 cells are harvested using 0.05% trypsin 0.5 mM EDTA, washed with HBMT once, and resuspended in HBMT containing 1 mM Mg2+ and 2 mM Ca2+. The cells are counted and adjusted to 0.5×10^6 cells per sample. The compound to be tested and fluorescently labeled mAb AP5 (either Alexa 488 or Alexa 674; 10 μg/mL) are added and incubated for 30 minutes at 37° C. The cells are then washed and analyzed by flow cytometry (BD FACSCalibur) at the appropriate wavelength for detecting the AP5 fluorophore. In each assay, cilengitide (1 μM) and 10 mM EDTA are included as positive controls and untreated cells are used as the negative control. The concentration of the test compound required to induce the expression of 50% of the AP5 expression induced by cilengitide is calculated and defined as the EC50. The EC50 for cilengitide was determined based on the expression induced by EDTA.

The mark [3] stands for this setting: @10 μM, relative to AP5 expression induced by cilengitide.

Where “and” joins values, the source holds several entries; their conditions need not be identical. Identical values can stand only once. Bounds are passed on as bounds.

T1 sequence (P05106 whole entry): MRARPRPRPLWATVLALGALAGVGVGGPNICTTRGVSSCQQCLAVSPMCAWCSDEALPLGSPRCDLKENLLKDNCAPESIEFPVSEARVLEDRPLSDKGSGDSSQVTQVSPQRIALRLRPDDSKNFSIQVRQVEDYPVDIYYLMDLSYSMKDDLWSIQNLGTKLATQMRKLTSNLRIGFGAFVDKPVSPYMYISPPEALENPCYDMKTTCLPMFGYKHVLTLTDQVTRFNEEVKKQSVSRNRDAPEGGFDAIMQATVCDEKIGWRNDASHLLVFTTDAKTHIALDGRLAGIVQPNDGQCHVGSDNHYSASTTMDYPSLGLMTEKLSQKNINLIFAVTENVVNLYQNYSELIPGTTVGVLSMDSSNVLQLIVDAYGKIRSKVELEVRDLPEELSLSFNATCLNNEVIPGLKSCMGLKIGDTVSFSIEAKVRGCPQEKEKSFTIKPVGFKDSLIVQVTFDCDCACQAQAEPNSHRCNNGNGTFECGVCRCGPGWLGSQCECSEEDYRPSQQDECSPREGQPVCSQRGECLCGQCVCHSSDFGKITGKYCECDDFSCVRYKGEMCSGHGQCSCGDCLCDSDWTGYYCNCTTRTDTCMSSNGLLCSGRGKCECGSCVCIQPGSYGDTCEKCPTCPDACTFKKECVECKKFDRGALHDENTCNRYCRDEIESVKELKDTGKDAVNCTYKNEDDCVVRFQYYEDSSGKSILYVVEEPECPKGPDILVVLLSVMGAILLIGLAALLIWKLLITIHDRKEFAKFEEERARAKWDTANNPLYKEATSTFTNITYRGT
T1 sequence (P06756 whole entry): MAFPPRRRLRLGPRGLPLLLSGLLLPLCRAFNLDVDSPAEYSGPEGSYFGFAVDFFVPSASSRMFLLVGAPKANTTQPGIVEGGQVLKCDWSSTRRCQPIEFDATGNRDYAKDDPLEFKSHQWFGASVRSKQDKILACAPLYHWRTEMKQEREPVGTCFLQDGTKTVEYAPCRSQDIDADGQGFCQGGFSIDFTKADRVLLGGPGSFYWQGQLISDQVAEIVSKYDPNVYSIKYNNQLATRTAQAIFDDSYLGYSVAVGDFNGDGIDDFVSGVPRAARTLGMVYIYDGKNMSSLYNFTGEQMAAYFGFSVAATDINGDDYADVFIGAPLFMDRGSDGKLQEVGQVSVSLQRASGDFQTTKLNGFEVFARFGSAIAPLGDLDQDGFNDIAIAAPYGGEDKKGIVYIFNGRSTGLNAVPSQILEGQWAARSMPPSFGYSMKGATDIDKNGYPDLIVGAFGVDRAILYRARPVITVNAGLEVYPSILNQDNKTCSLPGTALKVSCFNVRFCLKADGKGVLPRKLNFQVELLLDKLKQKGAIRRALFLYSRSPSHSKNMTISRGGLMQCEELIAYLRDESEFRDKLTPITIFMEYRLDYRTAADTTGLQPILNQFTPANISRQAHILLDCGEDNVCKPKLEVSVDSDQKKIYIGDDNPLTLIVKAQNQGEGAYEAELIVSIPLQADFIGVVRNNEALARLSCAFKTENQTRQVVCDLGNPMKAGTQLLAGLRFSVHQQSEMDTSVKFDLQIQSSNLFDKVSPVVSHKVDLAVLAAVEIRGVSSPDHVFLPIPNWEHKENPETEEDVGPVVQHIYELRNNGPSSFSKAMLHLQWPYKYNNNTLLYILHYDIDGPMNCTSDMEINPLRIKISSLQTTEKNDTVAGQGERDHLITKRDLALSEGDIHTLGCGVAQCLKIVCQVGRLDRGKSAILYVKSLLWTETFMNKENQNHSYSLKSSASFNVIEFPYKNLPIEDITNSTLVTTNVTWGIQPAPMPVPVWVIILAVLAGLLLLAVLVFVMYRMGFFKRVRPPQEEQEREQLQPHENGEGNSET

Turning to `COC(=O)C(C)CCNC(=O)CCCCc1ccc2c(n1)NCCC2` (centres unmarked) [Example 10, Methyl 2-methyl-4-[5-(5,6,7,8-tetrahydro-1,8-naphthyridin-2-yl)pentanoylamino]butanoate], at HEK-293-αVβ3 cells [1], the IC50 is > 10 µM.

As for `O=C(CCCCc1ccc2c(n1)NCCC2)NCCC(C(=O)O)c1cnc2ccccc2c1` (single isomer, unassigned) [Example 90, 2-(3-quinolyl)-4-[5-(5,6,7,8-tetrahydro-1,8-naphthyridin-2-yl)pentanoylamino]butanoic acid], on HEK-293-αVβ3 cells [2] (setting [3]), the “AP5 expression induced at the highest concentration” value worked out at 11%. For the same compound, at HEK-293-αVβ3 cells [2], the EC50 is > 10 µM. Inhibition against HEK-293-αVβ3 cells [1] was half-maximal at 0.228 µM (IC50).

As to `O=C(CCCCc1ccc2c(n1)NCCC2)NCCC(C(=O)O)n1cnc(-c2ccccc2)n1` (single isomer, unassigned) [Example 93, (S or R)-2-(3-phenyl-1,2,4-triazol-1-yl)-4-[5-(5,6,7,8-tetrahydro-1,8-naphthyridin-2-yl)pentanoylamino]-butanoic acid], on HEK-293-αVβ3 cells [2], the EC50 is > 10 µM. The IC50 on HEK-293-αVβ3 cells [1] came out at 0.288 µM.

As to `O=C(CCCCc1ccc2c(n1)NCCC2)NCCC(NC(=O)CO)C(=O)O` (centres unmarked) [Example 34], the activation at 10 µM at HEK-293-αVβ3 cells [2] (setting [3]) is 32%. Moreover, the EC50 on HEK-293-αVβ3 cells [2] is > 10 µM. The IC50 against HEK-293-αVβ3 cells [1] is < 0.1 µM.

Consider `O=C(CCCCc1ccc2c(n1)NCCC2)NCCC(NC(=O)OCc1ccccc1F)C(=O)O` (centres unmarked) [Example 65], for which the activation at 10 µM on HEK-293-αVβ3 cells [2] (setting [3]) stood at 13%. Also, at HEK-293-αVβ3 cells [2], the EC50 was > 10 µM. This compound also returned an IC50 on HEK-293-αVβ3 cells [1] of 0.12 µM.

Take `O=C(CCCCc1ccc2c(n1)NCCC2)NCCC(C(=O)O)n1cnc(-c2ccccc2)n1` (centres unmarked) [Example 78, 2-(3-phenyl-1,2,4-triazol-1-yl)-4-[5-(5,6,7,8-tetrahydro-1,8-naphthyridin-2-yl)pentanoylamino]butanoic acid]: at HEK-293-αVβ3 cells [2] (setting [3]), the activation at 10 µM worked out at 10%. In addition, the EC50 on HEK-293-αVβ3 cells [2] was > 10 µM. Further, the IC50 at HEK-293-αVβ3 cells [1] was determined as 0.518 µM.

In the case of `O=C(CCCCc1ccc2c(n1)NCCC2)NCCC(Nc1ncc(-c2ccccc2)cn1)C(=O)O` (centres unmarked) [Example 81, 2-[(5-phenylpyrimidin-2-yl)amino]-4-[5-(5,6,7,8-tetrahydro-1,8-naphthyridin-2-yl)pentanoylamino]butanoic acid], the activation at 10 µM on HEK-293-αVβ3 cells [2] (setting [3]) is 9%. The EC50 on HEK-293-αVβ3 cells [2] was > 10 µM. Besides, the IC50 at HEK-293-αVβ3 cells [1] was < 0.1 µM and 0.101 µM and 0.143 µM.

Regarding `O=C(CCCCc1ccc2c(n1)NCCC2)NCCC(NS(=O)(=O)c1ccc(Oc2ccccc2)cc1)C(=O)O` (centres unmarked) [Example 48], on HEK-293-αVβ3 cells [1], the IC50 was > 10 µM.

Turning to `O=C(O)CCCNC(=O)CCCCc1ccc2c(n1)NCCC2` [Example 1, 4-[5-(5,6,7,8-tetrahydro-1,8-naphthyridin-2-yl)pentanoylamino]butanoic acid], the EC50 at HEK-293-αVβ3 cells [2] is > 100 µM. The same compound showed a half-maximal inhibitory concentration (IC50) against HEK-293-αVβ3 cells [1] of 1.35 µM.

Turning to `O=C(CCCCc1ccc2c(n1)NCCC2)NCC[C@H](Nc1ncc(-c2ccccc2)cn1)C(=O)O` [Example 92, (2S)-2-[(5-phenylpyrimidin-2-yl)amino]-4-[5-(5,6,7,8-tetrahydro-1,8-naphthyridin-2-yl)pentanoylamino]butanoic acid], the EC50 on HEK-293-αVβ3 cells [2] was > 10 µM. Further, inhibition against HEK-293-αVβ3 cells [1] was half-maximal at 0.201 µM (IC50).

For the compound `O=C(CCCCc1ccc2c(n1)NCCC2)NCCC(NC(=O)OCc1ccc(F)cc1)C(=O)O` (centres unmarked) [Example 67], the activation at 10 µM at HEK-293-αVβ3 cells [2] (setting [3]) is 13%. The EC50 on HEK-293-αVβ3 cells [2] was > 10 µM. The compound also yielded an IC50 at HEK-293-αVβ3 cells [1] of 0.32 µM.

Turning to `O=C(CCCCc1ccc2c(n1)NCCC2)NCC[C@H](Nc1nc2ccccc2o1)C(=O)O` [Example 87, (2S)-2-(1,3-benzoxazol-2-ylamino)-4-[5-(5,6,7,8-tetrahydro-1,8-naphthyridin-2-yl)pentanoylamino]butanoic acid], the activation at 10 µM at HEK-293-αVβ3 cells [2] (setting [3]) amounted to 14%. Also, on HEK-293-αVβ3 cells [2], the EC50 was > 10 µM. At HEK-293-αVβ3 cells [1], half-maximal inhibition (IC50) required 0.187 µM.

Turning to `CC(CCNC(=O)CCCCc1ccc2c(n1)NCCC2)C(=O)O` (centres unmarked) [Example 12, 2-Methyl-4-[5-(5,6,7,8-tetrahydro-1,8-naphthyridin-2-yl)pentanoylamino]butanoic acid], the IC50 at HEK-293-αVβ3 cells [1] is > 10 µM.

With `O=C(CCCCc1ccc2c(n1)NCCC2)NCCC(NC(=O)c1ccccn1)C(=O)O` (centres unmarked) [Example 25], the activation at 10 µM on HEK-293-αVβ3 cells [2] (setting [3]) turned out to be 16%. For the same compound, the EC50 on HEK-293-αVβ3 cells [2] was > 10 µM. The IC50 against HEK-293-αVβ3 cells [1] is < 0.1 µM.

Turning to `O=C(CCCCc1ccc2c(n1)NCCC2)NCC[C@@H](Nc1nc2ccccc2o1)C(=O)O` [Example 85, (R)-2-(benzo[d]oxazol-2-ylamino)-4-(5-(5,6,7,8-tetrahydro-1,8-naphthyridin-2-yl)pentanamido)butanoic acid], the activation at 10 µM on HEK-293-αVβ3 cells [2] (setting [3]) worked out at 5%. For the same compound, the EC50 on HEK-293-αVβ3 cells [2] was > 10 µM. Besides, inhibition on HEK-293-αVβ3 cells [1] was half-maximal at 0.151 µM (IC50).

As to `COC(=O)C(CCNC(=O)CCCCc1ccc2c(n1)NCCC2)NC(=O)OCc1ccccc1` (centres unmarked) [Example 5, Methyl 2-(benzyloxycarbonylamino)-4-[5-(5,6,7,8-tetrahydro-1,8-naphthyridin-2-yl)pentanoylamino]butanoate], on HEK-293-αVβ3 cells [2] (setting [3]), the activation at 10 µM was found to be 23%. The EC50 at HEK-293-αVβ3 cells [2] was > 10 µM. Also, the IC50 at HEK-293-αVβ3 cells [1] came to 2.45 µM.

For `COC(=O)C(CCNC(=O)CCCCc1ccc2c(n1)NCCC2)Cc1ccccc1` (centres unmarked) [Example 11, Methyl 2-benzyl-4-[5-(5,6,7,8-tetrahydro-1,8-naphthyridin-2-yl)pentanoylamino]butanoate], the IC50 on HEK-293-αVβ3 cells [1] was > 10 µM.

Consider `O=C(CCCCc1ccc2c(n1)NCCC2)NCCC(NC(=O)Nc1ccc(Oc2ccccc2)cc1)C(=O)O` (centres unmarked) [Example 59], for which, on HEK-293-αVβ3 cells [1], the IC50 is > 10 µM.

For `COC(=O)[C@@H](CCNC(=O)CCCCc1ccc2c(n1)NCCC2)NC(=O)OCc1ccccc1` [Example 6, Methyl (2R)-2-(benzyloxycarbonylamino)-4-[5-(5,6,7,8-tetrahydro-1,8-naphthyridin-2-yl)pentanoylamino]butanoate], the IC50 against HEK-293-αVβ3 cells [1] is > 10 µM.

Regarding `CC(C)[C@H]1C(=O)N[C@@H](CCCN=C(N)N)C(=O)NCC(=O)N[C@@H](CC(=O)O)C(=O)N[C@H](Cc2ccccc2)C(=O)N1C` [cilengitide, reference compound], the AP5 expression at HEK-293-αVβ3 cells [2] (1 μM cilengitide, average±SD of 17 experiments) is reported as 42.5±8.0 arbitrary fluorescence units.

As for `O=C(CCCCc1ccc2c(n1)NCCC2)NCCC(C(=O)O)n1cnc(-c2ccccc2)n1` (single isomer, unassigned) [Example 94, (S or R)-2-(3-phenyl-1,2,4-triazol-1-yl)-4-[5-(5,6,7,8-tetrahydro-1,8-naphthyridin-2-yl)pentanoylamino]butanoic acid], on HEK-293-αVβ3 cells [1], inhibition was half-maximal at 0.373 µM (IC50).

On to `O=C(CCCCc1ccc2c(n1)NCCC2)NCCC(NS(=O)(=O)c1ccc2ccccc2c1)C(=O)O` (centres unmarked) [Example 45], for which, at HEK-293-αVβ3 cells [1] (dose 0.1 (table in μM), untreated cells 100% adhesion, 10 mM EDTA 0%), the “inhibition at specific dose 0.1” value was 40%.

Turning to `COC(=O)C(CCNC(=O)CCCCc1ccc2c(n1)NCCC2)c1ccccc1` (centres unmarked) [Example 8, Methyl 2-phenyl-4-[5-(5,6,7,8-tetrahydro-1,8-naphthyridin-2-yl)pentanoylamino]butanoate], the IC50 against HEK-293-αVβ3 cells [1] is > 10 µM.

`O=C(CCCCc1ccc2c(n1)NCCC2)NCCC(Cc1ccccc1)C(=O)O` (centres unmarked) [Example 13, 2-Benzyl-4-[5-(5,6,7,8-tetrahydro-1,8-naphthyridin-2-yl)pentanoylamino]butanoic acid]: the half-maximal inhibitory concentration (IC50) at HEK-293-αVβ3 cells [1] is > 10 µM.

By IC50 is commonly meant the concentration at which inhibition is half-maximal. The low end stands for inhibition by little substance, the high end for a need for much substance. Broadly, the EC50 is the midpoint of the concentration-response curve. The low end stands for higher potency in that assay, the high end for lower potency in that assay. The inhibition is the relative decrease from the control value, in per cent.
